Measurements published in patent US20230172204A1 (BASF SE, priority 2020, published 2023).

Experiments:
[1] = tested on: Phakopsora pachyrhizi (F129L); assay: Protective control of soybean rust on soybeans (PHAKPA P6); type: in vivo; details: for % PHAKPA (F129L) Disease level P6 at 4 ppm: protective P6, 4 ppm; for % PHAKPA (F129L) Disease level P6 at 4 ppm / % PHAKPA (F129L) Disease level P6 at 16 ppm: soybean rust F129L; for % PHAKPA (F129L) Disease level P6 at 16 ppm: protective P6, 16 ppm; for PHAKPA (F129L) Disease level (%) P6 at 16 ppm: P6 protective, % diseased leaf area
[2] = tested on: Phakopsora pachyrhizi (F129L); assay: Protective control of soybean rust on soybeans (PHAKPA P2); type: in vivo; details: for % PHAKPA (F129L) Disease level P2 at 4 ppm: protective P2, 4 ppm; for % PHAKPA (F129L) Disease level P2 at 4 ppm / % PHAKPA (F129L) Disease level P2 at 16 ppm: soybean rust F129L; for % PHAKPA (F129L) Disease level P2 at 16 ppm: protective P2, 16 ppm
[3] = P2 protective, % diseased leaf area

Structure (SMILES)	% PHAKPA (F129L) Disease level P6 at 4 ppm [1] [%]	% PHAKPA (F129L) Disease level P6 at 16 ppm [1] [%]	% PHAKPA (F129L) Disease level P2 at 4 ppm [2] [%]	% PHAKPA (F129L) Disease level P2 at 16 ppm [2] [%]	PHAKPA (F129L) Disease level (%) P6 at 16 ppm [1] [%]	PHAKPA (F129L) Disease level (%) P2 at 4 ppm ([2]; P2 protective, 4 ppm, % diseased leaf area) [%]	PHAKPA (F129L) Disease level (%) P2 at 16 ppm [2, 3] [%]
CNC(=O)/C(=N/OC)c1cccc(C)c1CO/N=C(\C)c1ccc(F)cc1OC(F)(F)F [compound 378]	17	1	18	1	–	–	–
CNC(=O)/C(=N/OC)c1cccc(C)c1CO/N=C(\C)c1cc(Br)cc(Br)c1 [compound 142]	26	5	19	5	–	–	–
CNC(=O)/C(=N/OC)c1cccc(C)c1CO/N=C(\C)c1cc(C(F)(F)F)ccc1F [compound 199]	0	0	0	0	–	–	–
CNC(=O)/C(=N/OC)c1cccc(OC)c1CO/N=C(\C)c1cccc(C(F)(F)F)c1 [compound 461]	52	6	26	2	–	–	–
CNC(=O)/C(=N/OC)c1cccc(C)c1CO/N=C(\C)c1cccc(C(C)(F)F)c1 [compound 303]	12	0	2	0	–	–	–
CNC(=O)/C(=C/OC)c1cccc(C)c1CO/N=C(\C)c1cccc(C(F)(F)F)c1 [compound 232]	100	83	100	73	–	–	–
CO/N=C(/C(=O)OC)c1cccc(C)c1CO/N=C(/c1cccc(C)c1)C1CC1 [drawing 971, reference compound]	–	–	–	–	37	80	–
CO/N=C(/C(=O)OC)c1cccc(C)c1CO/N=C(\C)c1cc(Br)cc(F)c1F [compound 240]	73	3	70	8	–	–	–
CNC(=O)/C(=N/OC)c1cccc(C)c1CO/N=C(\C)c1ccc(C(C)=O)cc1 [compound 179]	90	28	100	47	–	–	–
CO/N=C(/C(=O)OC)c1cccc(C)c1CO/N=C(\C)c1ccccc1C#N [compound 224]	100	100	97	100	–	–	–
CNC(=O)/C(=N/OC)c1cccc(C)c1CO/N=C(\C)c1c(F)cccc1OC(F)(F)F [compound 325]	22	1	24	4	–	–	–
CNC(=O)/C(=N/OC)c1cccc(C)c1CO/N=C(\C)c1ccc(Cl)c(F)c1CC(F)(F)F [compound 412]	40	6	47	6	–	–	–
CO/N=C(/C(=O)OC)c1cccc(C)c1CO/N=C(\C)c1c(Cl)cccc1Cl [compound 171]	80	50	100	100	–	–	–
CNC(=O)/C(=N/OC)c1cccc(C)c1CO/N=C(\C)c1ccc(C)cc1C(F)(F)F [compound 327]	48	4	23	3	–	–	–
CNC(=O)/C(=N/OC)c1cccc(C)c1CO/N=C(\C)c1ccc(OC(F)(F)F)cc1OC(F)(F)F [compound 349]	97	35	97	50	–	–	–
CNC(=O)/C(=N/OC)c1cccc(C)c1CO/N=C(\C)c1cccc(C#N)c1 [compound 112]	30	9	13	3	–	–	–

Structure (SMILES)	% PHAKPA (F129L) Disease level P6 at 4 ppm [1] [%]	% PHAKPA (F129L) Disease level P6 at 16 ppm [1] [%]	% PHAKPA (F129L) Disease level P2 at 4 ppm [2] [%]	% PHAKPA (F129L) Disease level P2 at 16 ppm [2] [%]	PHAKPA (F129L) Disease level (%) P6 at 16 ppm [1] [%]	PHAKPA (F129L) Disease level (%) P2 at 4 ppm ([2]; P2 protective, 4 ppm, % diseased leaf area) [%]	PHAKPA (F129L) Disease level (%) P2 at 16 ppm [2, 3] [%]
CNC(=O)/C(=N/OC)c1cccc(C)c1CO/N=C(\C)c1c(F)cc(Br)cc1OC(F)(F)F [compound 355]	48	4	34	7	–	–	–
CNC(=O)/C(=N/OC)c1cccc(C)c1CO/N=C(\C)c1c(F)cccc1C(F)(F)F [compound 345]	32	1	22	1	–	–	–
CO/N=C(/C(=O)OC)c1ccccc1CO/N=C(\C)c1ccc(C#N)cc1 [reference compound]	–	–	–	–	53	–	87
CNC(=O)/C(=N/OC)c1cccc(C)c1CO/N=C(\C)c1c(F)cc(F)cc1C(F)(F)F [compound 357]	18	0	13	1	–	–	–
CO/N=C(/C(=O)OC)c1cccc(C)c1CO/N=C(\C)c1ccccc1-c1ccccc1 [compound 121]	98	92	100	98	–	–	–
CO/N=C(/C(=O)OC)c1cccc(C)c1CO/N=C(\C)c1cccc(C(C)(F)F)c1 [compound 302]	47	3	47	4	–	–	–
CNC(=O)/C(=N/OC)c1cccc(C)c1CO/N=C(\C)c1cccc(C(F)(F)F)c1F [compound 69]	13	0	2	0	–	–	–
CNC(=O)/C(=N/OC)c1cccc(C)c1CO/N=C(\C)c1cccc(N2CC(F)(F)C2)c1 [Ex. 282]	–	18	–	15	18	–	15
CNC(=O)/C(=N/OC)c1cccc(C)c1CO/N=C(\CC(C)C)c1cccc(C(F)(F)F)c1 [compound 235]	87	77	100	73	–	–	–
CNC(=O)/C(=N/OC)c1cccc(C)c1CO/N=C(\C)c1cc(Cl)cc(C(F)(F)F)c1 [compound 228]	22	2	5	0	–	–	–
CNC(=O)/C(=N/OC)c1cccc(C)c1CO/N=C(\C)c1cc(C(F)(F)F)cc(C(F)(F)F)c1 [compound 32]	73	43	80	50	–	–	–
CO/N=C(/C(=O)OC)c1ccccc1CO/N=C(\C)c1ccc(OC)cc1 [reference compound]	–	–	–	–	33	–	67
CO/N=C(/C(=O)OC)c1ccccc1CO/N=C(\C)c1cccc(Cl)c1 [reference compound]	–	–	–	–	70	–	73
CNC(=O)/C(=N/OC)c1ccccc1CO/N=C(\C)c1ccc(-c2ccccc2)cc1 [reference compound]	–	–	–	–	28	–	37
CNC(=O)/C(=N/OC)c1cccc(C)c1CO/N=C(\C)c1cccc(C#CC(F)(F)F)c1 [compound 57]	43	15	25	8	–	–	–
